In patent US7968582B2, “5(S)-substituted pyrazoline compounds, their preparation and use as medicaments” (Laborotorios Del Dr. Esteve, S.A., priority 2005, dated 2011):

How the values were obtained:
[1] = target: T1, recombinant human cannabinoid 1 receptor (CB1) (Homo sapiens, UniProt P21554); assay: In vitro determination of antagonism to CB1-receptor, [35S]GTPγS binding assay; format: biochemical; conditions: compound 1 μM with agonist WIN 55,212-2 (3 nM to 3 μM); 100% = difference between maximal WIN 55,212-2 effect alone and plus Rimonabant (1 μM); CHO-hCB1 membranes
T1 construct: expressed in transfected cells; membrane preparation
Experimental: VI. In vitro Determination of Antagonism to CB1-Receptor
In order to obtain cells, culture flasks were washed twice with phosphate buffered saline and scraped. Then, cells were collected by centrifugation (200×g, 10 min) and stored dry at −80° C.
[^35S]GTPγS Binding Assay:
The reaction was performed in 96-well plates. […] Filter plates were dried and 30 μl of scintillation liquid was added, Radioactivity was determined using a Wallac Microbeta Trilux. Each experiment was performed at least in duplicate.
The average of basal [^35S]GTPγS binding was subtracted from all binding data.

[2] = Effect of continued administration on body weight in rats; format: in vivo
Experimental: V. Determination of the Effect of Continued Administration of the Inventive Compounds on Body Weight in Rats
The weight of the animals was measured for 36 days, and the data grouped into 3 periods for analysis: Period 1, days 1-8 (period for adaptation of the animals to the environmental conditions: one week without treatment plus first day of treatment); Period 2. days 9-22 (treatment period: two weeks); Period 3, days 23-36 (escape treatment period: two weeks). The administration of the drugs started on day 8, immediately after the animal was weighted, and finished on day 21. The treatment period ranges between one day after first administration and one day after last administration. The drugs were administered i.p. once daily. For comparative purposes, absolute weights were transformed into relative percentages (each weight was divided by that of day 8 and multiplied by 100). […] All results are expressed as mean±S.E.M.
The dependence of body-weight (expressed as a percentage relative to day 8) on time (number of lays after inclusion in the study) and treatment was assessed by a two-way (time, treatment) analysis of variance (ANOVA) with repeated measures on the time factor. […] The differences between pairs of curves (treatments) were analyzed using appropriate contrasts within the ANOVA test. […]

[3] = Chronic administration to animals made obese by a simplified cafeteria diet; format: in vivo, rats

T1 sequence (P21554 whole entry): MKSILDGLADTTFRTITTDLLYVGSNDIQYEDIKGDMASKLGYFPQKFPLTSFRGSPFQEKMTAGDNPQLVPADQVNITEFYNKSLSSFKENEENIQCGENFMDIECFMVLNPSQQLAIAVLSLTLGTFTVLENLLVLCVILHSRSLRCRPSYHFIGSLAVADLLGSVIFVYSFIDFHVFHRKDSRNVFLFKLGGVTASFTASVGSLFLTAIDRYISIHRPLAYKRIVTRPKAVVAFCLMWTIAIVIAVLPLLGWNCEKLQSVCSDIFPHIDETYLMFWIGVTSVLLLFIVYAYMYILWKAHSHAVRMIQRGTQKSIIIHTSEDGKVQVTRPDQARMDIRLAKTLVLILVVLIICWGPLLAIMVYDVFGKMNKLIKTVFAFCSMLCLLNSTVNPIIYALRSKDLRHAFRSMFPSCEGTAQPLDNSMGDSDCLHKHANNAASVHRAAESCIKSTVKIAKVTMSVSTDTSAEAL

Cl.O=C(NN1CCCCC1)C1=NN(c2ccc(Cl)cc2Cl)[C@H](c2ccc(Cl)cc2)C1 [A-Hydrochloride, Hydrochloride salt of (S)-N-piperidinyl-5-(4-chlorophenyl)-1-(2,4-dichlorophenyl)-4,5-dihydro-1H-pyrazole-3-carboxamide]
Antagonism [%] [1]: −7%

O=C(NN1CCCCC1)C1=NN(c2ccc(Cl)cc2Cl)[C@H](c2ccc(Cl)cc2)C1 [A, (S)-N-piperidinyl-5-(4-chlorophenyl)-1-(2,4-dichlorophenyl)-4,5-dihydro-1H-pyrazole-3-carboxamide]
Antagonism [%] [1]: 43% | body weight during treatment period ([2]; 10 mg/kg i.p. once daily, days 9-22, FIG. 1): significant action during the treatment period | body weight in post-treatment period ([2]; after 10 mg/kg i.p. once daily, days 23-36, FIG. 1): relatively fast recovery of weight | body weight versus vehicle-treated controls ([3]; after 28 days of drug treatment, rats): lower than those of the vehicle-treated controls | body weight ([3]; chronic administration, animals made obese by cafeteria diet (high-fat diet, chocolate, ground peanuts)): significantly decreased body weight | effect on plasma lipids (triacylglycerol and glycerol) ([3]; following chronic administration, seems independent of weight loss): positive effect on plasma lipids
